{
  "source": "patent US8933230B2",
  "about": "“Phosphorus-containing group-substituted quinoline, its preparation process, medical composition containing the compounds and application” (priority 2011, dated 2015)",
  "test_in_all_cases": "KinomeScan kinase panel",
  "type_in_all_cases": "binding",
  "key": {"CDK11": {"molecular_target": "T1, CDK11 (Homo sapiens, UniProt Q9BWU1)", "T1 construct": "purchased DiscoveRx Corporation (KinomeScan)", "method_in_brief": "(§1)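 Single-point screen: 1000 nM compound, KinomeScan panel of 442 kinases.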"}, "PRKD3": {"molecular_target": "T2, PRKD3 (Homo sapiens, UniProt O94806)", "T2 construct": "purchased DiscoveRx Corporation (KinomeScan)", "method_in_brief": "as §1"}, "HPK1": {"molecular_target": "T3, HPK1 (Homo sapiens, UniProt Q92918)", "T3 construct": "purchased DiscoveRx Corporation (KinomeScan)", "method_in_brief": "as §1"}, "ACVR2A": {"molecular_target": "T4, ACVR2A (Homo sapiens, UniProt P27037)", "T4 construct": "purchased DiscoveRx Corporation (KinomeScan)", "T4 sequence (P27037 20-513)": "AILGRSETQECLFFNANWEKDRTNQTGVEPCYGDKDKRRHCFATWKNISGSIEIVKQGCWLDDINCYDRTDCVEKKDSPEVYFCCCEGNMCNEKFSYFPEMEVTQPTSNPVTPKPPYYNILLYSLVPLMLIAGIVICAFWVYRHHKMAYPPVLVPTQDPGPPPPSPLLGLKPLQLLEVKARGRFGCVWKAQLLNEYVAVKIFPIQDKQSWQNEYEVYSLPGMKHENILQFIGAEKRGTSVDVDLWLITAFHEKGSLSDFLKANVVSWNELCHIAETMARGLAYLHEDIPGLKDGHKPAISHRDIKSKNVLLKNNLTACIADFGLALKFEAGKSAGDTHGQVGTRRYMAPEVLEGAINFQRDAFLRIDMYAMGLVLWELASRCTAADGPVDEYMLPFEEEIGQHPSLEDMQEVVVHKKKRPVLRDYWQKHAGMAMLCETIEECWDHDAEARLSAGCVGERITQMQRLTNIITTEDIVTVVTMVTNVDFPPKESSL", "method_in_brief": "as §1"}, "ERK1": {"molecular_target": "T5, ERK1 (Homo sapiens, UniProt P27361)", "T5 construct": "purchased DiscoveRx Corporation (KinomeScan)", "method_in_brief": "as §1"}, "MYLK4": {"molecular_target": "T6, MYLK4 (Homo sapiens, UniProt Q86YV6)", "T6 construct": "purchased DiscoveRx Corporation (KinomeScan)", "method_in_brief": "as §1"}, "NEK11": {"molecular_target": "T7, NEK11 (Homo sapiens, UniProt Q8NG66)", "T7 construct": "purchased DiscoveRx Corporation (KinomeScan)", "method_in_brief": "as §1"}, "KIT(V559D, T670I)": {"molecular_target": "T8, KIT(V559D, T670I) (Homo sapiens, UniProt P10721, T670I/V559D)", "T8 construct": "purchased DiscoveRx Corporation (KinomeScan)", "method_in_brief": "as §1"}, "HIPK2": {"molecular_target": "T9, HIPK2 (Homo sapiens, UniProt Q9H2X6)", "T9 construct": "purchased DiscoveRx Corporation (KinomeScan)", "method_in_brief": "as §1"}, "[1]": {"molecular_target": "T10, ABL1(F317L)-phosphorylated (Homo sapiens, UniProt P00519, F317L)", "T10 construct": "purchased DiscoveRx Corporation (KinomeScan)", "method_in_brief": "as §1"}, "[2]": {"molecular_target": "T11, ABL1(Q252H)-phosphorylated (Homo sapiens, UniProt P00519, Q252H)", "T11 construct": "purchased DiscoveRx Corporation (KinomeScan)", "method_in_brief": "as §1"}, "BMPR1B": {"molecular_target": "T12, BMPR1B (Homo sapiens, UniProt O00238)", "T12 construct": "purchased DiscoveRx Corporation (KinomeScan)", "method_in_brief": "as §1"}, "YANK2": {"molecular_target": "T13, YANK2 (Homo sapiens, UniProt Q9NY57)", "T13 construct": "purchased DiscoveRx Corporation (KinomeScan service)", "method_in_brief": "as §1"}, "[3]": {"molecular_target": "T14, RSK1(Kin.Dom.2-C-terminal) (Homo sapiens, UniProt Q15418)", "T14 construct": "Kin.Dom.2; purchased DiscoveRx Corporation", "T14 sequence (Q15418 418-675 limits assumed)": "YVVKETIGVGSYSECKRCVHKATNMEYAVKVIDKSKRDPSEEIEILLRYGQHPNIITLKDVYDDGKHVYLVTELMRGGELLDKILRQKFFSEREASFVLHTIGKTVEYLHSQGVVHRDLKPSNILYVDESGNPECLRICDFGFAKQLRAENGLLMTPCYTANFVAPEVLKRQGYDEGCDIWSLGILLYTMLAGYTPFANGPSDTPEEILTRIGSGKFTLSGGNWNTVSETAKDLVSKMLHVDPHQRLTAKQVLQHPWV", "method_in_brief": "as §1"}, "FLT3(D835Y)": {"molecular_target": "T15, FLT3(D835Y) (Homo sapiens, UniProt P36888, D835Y)", "T15 construct": "purchased DiscoveRx Corporation (KinomeScan)", "method_in_brief": "as §1"}, "JNK3": {"molecular_target": "T16, JNK3 (Homo sapiens, UniProt P53779)", "T16 construct": "purchased DiscoveRx Corporation (KinomeScan)", "T16 sequence (P53779 whole entry)": "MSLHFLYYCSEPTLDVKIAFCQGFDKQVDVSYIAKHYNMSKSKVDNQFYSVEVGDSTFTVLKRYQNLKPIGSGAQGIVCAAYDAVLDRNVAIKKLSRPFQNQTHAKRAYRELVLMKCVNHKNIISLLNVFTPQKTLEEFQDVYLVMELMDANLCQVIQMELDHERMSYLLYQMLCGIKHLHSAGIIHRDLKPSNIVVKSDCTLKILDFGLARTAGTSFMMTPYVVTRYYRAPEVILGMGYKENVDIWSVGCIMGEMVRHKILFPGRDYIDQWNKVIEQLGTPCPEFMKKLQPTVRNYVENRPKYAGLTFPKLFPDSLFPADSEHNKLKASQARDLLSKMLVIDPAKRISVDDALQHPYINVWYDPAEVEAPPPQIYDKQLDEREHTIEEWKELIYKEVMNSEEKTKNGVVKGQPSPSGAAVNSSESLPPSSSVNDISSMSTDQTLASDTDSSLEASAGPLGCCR", "method_in_brief": "as §1"}, "FER": {"molecular_target": "T17, FER (Homo sapiens, UniProt P16591)", "T17 construct": "purchased DiscoveRx Corporation (KinomeScan)", "T17 sequence (P16591 whole entry)": "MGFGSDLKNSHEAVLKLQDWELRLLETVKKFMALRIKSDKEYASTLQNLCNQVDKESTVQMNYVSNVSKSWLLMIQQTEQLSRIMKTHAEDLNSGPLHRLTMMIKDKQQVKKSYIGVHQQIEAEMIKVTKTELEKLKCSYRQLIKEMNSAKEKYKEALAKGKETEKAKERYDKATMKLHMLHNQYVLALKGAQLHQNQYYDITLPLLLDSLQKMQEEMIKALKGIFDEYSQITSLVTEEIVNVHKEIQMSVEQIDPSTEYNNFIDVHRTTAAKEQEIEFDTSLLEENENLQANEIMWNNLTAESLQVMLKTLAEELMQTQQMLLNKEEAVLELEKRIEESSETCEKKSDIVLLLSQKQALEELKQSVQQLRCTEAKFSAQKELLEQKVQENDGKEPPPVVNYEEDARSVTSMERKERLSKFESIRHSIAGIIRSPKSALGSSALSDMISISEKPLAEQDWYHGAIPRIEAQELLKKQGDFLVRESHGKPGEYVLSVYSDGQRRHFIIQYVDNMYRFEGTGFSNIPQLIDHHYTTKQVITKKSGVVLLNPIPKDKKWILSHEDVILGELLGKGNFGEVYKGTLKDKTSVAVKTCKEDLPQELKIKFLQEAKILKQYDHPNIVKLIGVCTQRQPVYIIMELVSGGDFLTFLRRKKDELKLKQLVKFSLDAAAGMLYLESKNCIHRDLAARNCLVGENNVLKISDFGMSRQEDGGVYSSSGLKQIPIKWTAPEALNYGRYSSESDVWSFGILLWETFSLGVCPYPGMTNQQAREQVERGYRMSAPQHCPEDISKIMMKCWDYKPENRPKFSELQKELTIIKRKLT", "method_in_brief": "as §1"}, "RIPK5": {"molecular_target": "T18, RIPK5 (Homo sapiens, UniProt Q6XUX3)", "T18 construct": "purchased DiscoveRx Corporation", "T18 sequence (Q6XUX3 whole entry)": "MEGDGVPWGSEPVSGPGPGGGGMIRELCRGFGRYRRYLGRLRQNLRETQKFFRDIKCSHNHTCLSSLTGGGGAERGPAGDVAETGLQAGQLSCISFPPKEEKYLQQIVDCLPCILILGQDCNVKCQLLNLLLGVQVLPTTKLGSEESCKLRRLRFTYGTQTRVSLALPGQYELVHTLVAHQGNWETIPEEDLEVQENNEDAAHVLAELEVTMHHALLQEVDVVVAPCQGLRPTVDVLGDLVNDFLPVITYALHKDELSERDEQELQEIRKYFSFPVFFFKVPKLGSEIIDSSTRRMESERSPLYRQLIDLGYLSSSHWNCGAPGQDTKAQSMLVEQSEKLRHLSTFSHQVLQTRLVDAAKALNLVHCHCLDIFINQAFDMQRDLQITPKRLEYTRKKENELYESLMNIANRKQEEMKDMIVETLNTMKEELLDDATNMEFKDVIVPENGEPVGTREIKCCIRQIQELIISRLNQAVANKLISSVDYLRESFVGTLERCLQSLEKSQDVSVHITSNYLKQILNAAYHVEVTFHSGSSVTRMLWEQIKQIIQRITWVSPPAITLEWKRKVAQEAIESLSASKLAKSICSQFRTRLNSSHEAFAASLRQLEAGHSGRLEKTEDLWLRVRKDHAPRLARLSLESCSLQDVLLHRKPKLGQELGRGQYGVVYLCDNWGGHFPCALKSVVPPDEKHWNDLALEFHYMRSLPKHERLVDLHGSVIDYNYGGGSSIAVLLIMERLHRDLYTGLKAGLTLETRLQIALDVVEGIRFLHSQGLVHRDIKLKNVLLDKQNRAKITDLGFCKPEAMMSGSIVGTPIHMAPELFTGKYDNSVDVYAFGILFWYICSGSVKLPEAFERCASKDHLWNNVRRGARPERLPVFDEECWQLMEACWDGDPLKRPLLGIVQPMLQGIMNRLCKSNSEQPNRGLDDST", "method_in_brief": "as §1"}, "FGFR": {"molecular_target": "T19, FGFR (Homo sapiens, UniProt P21802)", "T19 construct": "purchased DiscoveRx Corporation (KinomeScan)", "T19 sequence (P21802 458-770 limits assumed)": "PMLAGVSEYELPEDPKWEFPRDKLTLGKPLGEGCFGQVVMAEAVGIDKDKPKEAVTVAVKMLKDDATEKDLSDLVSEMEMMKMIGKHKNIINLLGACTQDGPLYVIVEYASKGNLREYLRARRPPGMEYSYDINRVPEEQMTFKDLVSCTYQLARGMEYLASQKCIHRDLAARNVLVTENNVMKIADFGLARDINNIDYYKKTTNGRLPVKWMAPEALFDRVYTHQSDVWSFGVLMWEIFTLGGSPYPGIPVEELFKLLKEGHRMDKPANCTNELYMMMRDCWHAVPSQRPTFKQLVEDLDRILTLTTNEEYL", "method_in_brief": "as §1"}, "FLT1": {"molecular_target": "T20, FLT1 (Homo sapiens, UniProt P17948)", "T20 construct": "purchased DiscoveRx Corporation (KinomeScan)", "T20 sequence (P17948 27-1338)": "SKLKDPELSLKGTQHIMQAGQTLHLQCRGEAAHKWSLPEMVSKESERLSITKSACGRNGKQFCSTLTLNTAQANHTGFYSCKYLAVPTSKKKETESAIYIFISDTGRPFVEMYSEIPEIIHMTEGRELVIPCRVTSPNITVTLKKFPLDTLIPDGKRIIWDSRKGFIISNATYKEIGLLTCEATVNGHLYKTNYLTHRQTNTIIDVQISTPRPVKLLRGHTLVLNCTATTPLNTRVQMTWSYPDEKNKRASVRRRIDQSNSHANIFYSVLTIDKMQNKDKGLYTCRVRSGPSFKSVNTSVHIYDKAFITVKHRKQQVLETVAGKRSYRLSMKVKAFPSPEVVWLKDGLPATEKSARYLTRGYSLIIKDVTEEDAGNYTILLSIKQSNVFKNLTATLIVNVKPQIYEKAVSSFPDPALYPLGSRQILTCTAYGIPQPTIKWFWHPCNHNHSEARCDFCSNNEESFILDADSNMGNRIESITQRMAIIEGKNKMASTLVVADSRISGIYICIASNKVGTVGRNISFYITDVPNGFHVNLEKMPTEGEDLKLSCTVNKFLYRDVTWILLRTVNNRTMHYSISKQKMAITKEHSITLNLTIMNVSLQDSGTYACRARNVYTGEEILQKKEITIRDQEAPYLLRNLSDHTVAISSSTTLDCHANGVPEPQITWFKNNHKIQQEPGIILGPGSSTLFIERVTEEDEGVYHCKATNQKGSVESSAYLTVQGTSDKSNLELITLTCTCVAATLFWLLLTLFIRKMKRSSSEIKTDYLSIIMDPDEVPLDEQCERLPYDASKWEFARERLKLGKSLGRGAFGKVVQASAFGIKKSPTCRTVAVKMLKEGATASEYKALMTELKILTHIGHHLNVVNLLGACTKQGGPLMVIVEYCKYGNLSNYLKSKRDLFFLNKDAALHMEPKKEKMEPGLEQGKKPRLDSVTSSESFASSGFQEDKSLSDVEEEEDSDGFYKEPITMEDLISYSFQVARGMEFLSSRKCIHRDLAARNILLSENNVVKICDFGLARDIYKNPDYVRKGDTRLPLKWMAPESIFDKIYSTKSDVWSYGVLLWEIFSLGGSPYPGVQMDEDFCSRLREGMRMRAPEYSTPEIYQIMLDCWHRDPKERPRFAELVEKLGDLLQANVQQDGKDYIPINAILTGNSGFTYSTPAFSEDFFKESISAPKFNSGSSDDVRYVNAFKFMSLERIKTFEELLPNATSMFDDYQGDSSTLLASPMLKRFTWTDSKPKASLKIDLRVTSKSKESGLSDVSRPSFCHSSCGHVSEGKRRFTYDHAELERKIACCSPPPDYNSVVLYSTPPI", "method_in_brief": "as §1"}, "PDGFRB": {"molecular_target": "T21, PDGFRB (Homo sapiens, UniProt P09619)", "T21 construct": "purchased DiscoveRx Corporation (KinomeScan panel)", "method_in_brief": "as §1"}, "PIK3CB": {"molecular_target": "T22, PIK3CB (Homo sapiens, UniProt P42338)", "T22 construct": "purchased DiscoveRx Corporation (KinomeScan)", "method_in_brief": "as §1"}, "YSK1": {"molecular_target": "T23, YSK1 (Homo sapiens, UniProt O00506)", "T23 construct": "purchased DiscoveRx Corporation (KinomeScan service)", "method_in_brief": "as §1"}, "CSNK1A1L": {"molecular_target": "T24, CSNK1A1L (Homo sapiens, UniProt Q8N752)", "T24 construct": "purchased DiscoveRx Corporation (KinomeScan)", "T24 sequence (Q8N752 whole entry)": "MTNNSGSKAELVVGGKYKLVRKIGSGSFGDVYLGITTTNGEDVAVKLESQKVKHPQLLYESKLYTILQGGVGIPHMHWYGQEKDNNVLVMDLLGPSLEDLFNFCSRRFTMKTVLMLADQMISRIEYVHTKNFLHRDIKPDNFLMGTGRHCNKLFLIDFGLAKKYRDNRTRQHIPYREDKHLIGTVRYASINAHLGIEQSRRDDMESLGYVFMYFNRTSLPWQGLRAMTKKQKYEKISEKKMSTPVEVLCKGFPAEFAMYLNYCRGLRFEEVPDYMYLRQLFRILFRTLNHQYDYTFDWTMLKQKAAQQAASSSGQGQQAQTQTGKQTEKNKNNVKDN", "method_in_brief": "as §1"}, "CDK4-cyclinD3": {"molecular_target": "T25, CDK4-cyclinD3 (Homo sapiens, UniProt P11802)", "T25 construct": "purchased DiscoveRx Corporation (KinomeScan)", "method_in_brief": "as §1"}},
  "data": [
    {"smiles": "CCOP(=O)(CN1CCC(COc2cc3nccc(Oc4ccc(NC(=O)C5(C(=O)Nc6ccc(F)cc6)CC5)cc4F)c3cc2OC)CC1)OCC", "note": "[Example 10, N1-[4-[[7-[[1-(diethoxyphosphorylmethyl)-4-piperidinyl]methoxyl]-6-methoxyl-4-quinolyl]oxyl]-3-fluorophenyl]-N1′-(4-fluorophenyl)cyclopropane-1,1-dicarboxamide]", "values": [
      {"measurement": "% Ctrl@1000 nM", "setting": "CDK11", "result": 67, "unit": "% Ctrl"},
      {"measurement": "% Ctrl@1000 nM", "setting": "PRKD3", "result": 88, "unit": "% Ctrl"},
      {"measurement": "% Ctrl@1000 nM", "setting": "HPK1", "result": 40, "unit": "% Ctrl"},
      {"measurement": "% Ctrl@1000 nM", "setting": "ACVR2A", "result": 100, "unit": "% Ctrl"},
      {"measurement": "% Ctrl@1000 nM", "setting": "ERK1", "result": 99, "unit": "% Ctrl"},
      {"measurement": "% Ctrl@1000 nM", "setting": "MYLK4", "result": 100, "unit": "% Ctrl"},
      {"measurement": "% Ctrl@1000 nM", "setting": "NEK11", "result": 100, "unit": "% Ctrl"},
      {"measurement": "% Ctrl@1000 nM", "setting": "KIT(V559D, T670I)", "result": 1.4, "unit": "% Ctrl"},
      {"measurement": "% Ctrl@1000 nM", "setting": "HIPK2", "result": 100, "unit": "% Ctrl"},
      {"measurement": "% Ctrl@1000 nM", "setting": "[1]", "result": 69, "unit": "% Ctrl"},
      {"measurement": "% Ctrl@1000 nM", "setting": "[2]", "result": 84, "unit": "% Ctrl"},
      {"measurement": "% Ctrl@1000 nM", "setting": "BMPR1B", "result": 100, "unit": "% Ctrl"},
      {"measurement": "% Ctrl@1000 nM", "setting": "YANK2", "result": 100, "unit": "% Ctrl"},
      {"measurement": "% Ctrl@1000 nM", "setting": "[3]", "result": 100, "unit": "% Ctrl"},
      {"measurement": "% Ctrl@1000 nM", "setting": "FLT3(D835Y)", "result": 2.4, "unit": "% Ctrl"},
      {"measurement": "% Ctrl@1000 nM", "setting": "JNK3", "result": 95, "unit": "% Ctrl"},
      {"measurement": "% Ctrl@1000 nM", "setting": "FER", "result": 50, "unit": "% Ctrl"},
      {"measurement": "% Ctrl@1000 nM", "setting": "RIPK5", "result": 82, "unit": "% Ctrl"},
      {"measurement": "% Ctrl@1000 nM", "setting": "FGFR", "result": 76, "unit": "% Ctrl"},
      {"measurement": "% Ctrl@1000 nM", "setting": "FLT1", "result": 7.3, "unit": "% Ctrl"},
      {"measurement": "% Ctrl@1000 nM", "setting": "PDGFRB", "result": 0, "unit": "% Ctrl"},
      {"measurement": "% Ctrl@1000 nM", "setting": "PIK3CB", "result": 100, "unit": "% Ctrl"},
      {"measurement": "% Ctrl@1000 nM", "setting": "YSK1", "result": 57, "unit": "% Ctrl"},
      {"measurement": "% Ctrl@1000 nM", "setting": "CSNK1A1L", "result": 100, "unit": "% Ctrl"},
      {"measurement": "% Ctrl@1000 nM", "setting": "CDK4-cyclinD3", "result": 100, "unit": "% Ctrl"}
    ]}
  ]
}
